Target: Menin-MLL (Homo sapiens (Human), UniProt O00255)
Assay: Determination of binding constants (Ki) to Menin-MLL (HTRF)
Conditions: HTRF, 0.25 nM H-FL-Menin, 3.2 nM FITC-MLL-4-43, 24 hr incubation; for Ki: read-out: Menin-MLL Ki HTRF Assay: Ki

Chain of Menin-MLL (O00255 whole entry): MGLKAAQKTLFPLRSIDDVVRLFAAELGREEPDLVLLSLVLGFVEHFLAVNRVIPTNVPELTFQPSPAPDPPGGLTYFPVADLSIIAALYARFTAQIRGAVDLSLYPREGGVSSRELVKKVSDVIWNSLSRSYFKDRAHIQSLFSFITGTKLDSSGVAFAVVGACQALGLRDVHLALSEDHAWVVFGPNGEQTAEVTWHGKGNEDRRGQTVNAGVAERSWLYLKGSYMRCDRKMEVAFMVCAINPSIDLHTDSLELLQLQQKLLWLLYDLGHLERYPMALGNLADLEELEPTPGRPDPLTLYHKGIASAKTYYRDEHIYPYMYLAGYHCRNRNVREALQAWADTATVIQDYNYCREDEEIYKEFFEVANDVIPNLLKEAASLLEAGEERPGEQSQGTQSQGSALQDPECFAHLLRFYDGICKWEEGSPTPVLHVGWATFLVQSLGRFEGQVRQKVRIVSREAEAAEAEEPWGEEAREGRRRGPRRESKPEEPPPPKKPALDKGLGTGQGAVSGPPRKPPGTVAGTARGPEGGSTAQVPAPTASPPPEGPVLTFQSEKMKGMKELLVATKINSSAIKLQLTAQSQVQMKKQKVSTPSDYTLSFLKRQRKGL

SMILES	EC50	Ki
CC(C)N(C(=O)c1cc(F)ccc1Oc1cncnc1N1CC2(CCN(C[C@@H]3CC[C@@H](NS(=O)(=O)C(C)C)CO3)CC2)C1)[C@@H]1CCOC1 [Compound 132, 5-Fluoro-N-i sopropyl-2-((4-(7-(((2S,5R)-5-((1-methylethyl)sulfonamido)tetrahydro-2H-pyran-2-yl)methyl)-2,7-diazaspiro[3.5]nonan-2-yl)pyrimidin-5-yl)oxy)-N-((R)-tetrahydrofuran-3-yl)benzamide]	< 50 nM	< 1 nM
Cc1nc(S(=O)(=O)N[C@@H]2CC[C@@H](CN3CCC4(CC3)CN(c3ncncc3Oc3ccc(F)cc3C(=O)N(C(C)C)[C@@H]3CCOC3)C4)OC2)cs1 [Compound 133, 5-Fluoro-N-isopropyl-2-((4-(7-(((2S,5R)-5-((2-methylthiazole)-4-sulfonamido)tetrahydro-2H-pyran-2-yl)methyl)-2,7-diazaspiro[3.5]nonan-2-yl)pyrimidin-5-yl)oxy)-N-((R)-tetrahydrofuran-3-yl)benzamide]		< 1 nM
Cc1nc(S(=O)(=O)N[C@@H]2CC[C@@H](CN3CCC4(CC3)CN(c3ncncc3Oc3ccc(F)cc3C(=O)N(C(C)C)[C@H]3CCOC3)C4)OC2)cs1 [Compound 135, 5-Fluoro-N-isopropyl-2-((4-(7-(((2S,5R)-5-((2-methylthiazole)-4-sulfonamido)tetrahydro-2H-pyran-2-yl)methyl)-2,7-diazaspiro[3.5]nonan-2-yl)pyrimidin-5-yl)oxy)-N-((S)-tetrahydrofuran-3-yl)benzamide]		< 1 nM
CC(C)N(C)C(=O)c1cc(F)ccc1Oc1cncnc1N1CC2(CCN(C[C@@H]3CC[C@@H](NS(=O)(=O)N(C)C)CO3)CC2)C1 [Compound 137, 2-((4-(7-(((2S,5R)-5-((N,N-Dimethylsulfamoyl)amino)tetrahydro-2H-pyran-2-yl)methyl)-2,7-diazaspiro[3.5]nonan-2-yl)pyrimidin-5-yl)oxy)-5-fluoro-N-isopropyl-N-methylbenzamide]		< 1 nM
CC(C)N(C)C(=O)c1cc(F)ccc1Oc1cncnc1N1CC2(CCN(C[C@@H]3CC[C@@H](NS(=O)(=O)c4cnn(C)c4)CO3)CC2)C1 [Compound 139, 5-Fluoro-N-isopropyl-N-methyl-2-((4-(7-(((2S,5R)-5-((1-methyl-1H-pyrazole)-4-sulfonamido)tetrahydro-2H-pyran-2-yl)methyl)-2,7-diazaspiro[3.5]nonan-2-yl)pyrimidin-5-yl)oxy)benzamide]		< 1 nM
CCN(C(=O)c1cc(F)ccc1Oc1cncnc1N1CC2(CCN(C[C@@H]3CC[C@@H](NS(=O)(=O)N(C)CC)CO3)CC2)C1)C(C)C [Compound 140, N-Ethyl-2-((4-(7-(((2S,5R)-5-((N-ethyl-N-methylsulfamoyl)amino)tetrahydro-2H-pyran-2-yl)methyl)-2,7-diazaspiro[3.5]nonan-2-yl)pyrimidin-5-yl)oxy)-5-fluoro-N-isopropylbenzamide]		< 1 nM
CC(C)NS(=O)(=O)N[C@@H]1CC[C@@H](CN2CCC3(CC2)CN(c2ncncc2Oc2ccc(F)cc2C(=O)N(CC(F)F)C(C)C)C3)OC1 [Compound 150, N-(2,2-Difluoroethyl)-5-fluoro-N-isopropyl-2-((4-(7-(((2S,5R)-5-((N-isopropylsulfamoyl)amino)tetrahydro-2H-pyran-2-yl)methyl)-2,7-diazaspiro[3.5]nonan-2-yl)pyrimidin-5-yl)oxy)benzamide]		< 1 nM
CCCNS(=O)(=O)N[C@@H]1CC[C@@H](CN2CCC3(CC2)CN(c2ncncc2Oc2ccc(F)cc2C(=O)N(CC(F)F)C(C)C)C3)OC1 [Compound 151, N-(2,2-Difluoroethyl)-5-fluoro-N-isopropyl-2-((4-(7-(((2S,5R)-5-((N-propylsulfamoyl)amino)tetrahydro-2H-pyran-2-yl)methyl)-2,7-diazaspiro[3.5]nonan-2-yl)pyrimidin-5-yl)oxy)benzamide]		< 1 nM
CCS(=O)(=O)N[C@@H]1CC[C@@H](CN2CCC3(CC2)CN(c2ncncc2Oc2ccc(F)cc2C(=O)N(CC(F)(F)F)C(C)C)C3)OC1 [Compound 152, 2-((4-(7-(((2S,5R)-5-(Ethylsulfonamido)tetrahydro-2H-pyran-2-yl)methyl)-2,7-diazaspiro[3.5]nonan-2-yl)pyrimidin-5-yl)oxy)-5-fluoro-N-isopropyl-N-(2,2,2-trifluoroethyl)benzamide]	< 50 nM	< 1 nM
C[C@@H]1COC[C@@H](C)N1C(=O)c1cc(F)ccc1Oc1cncnc1N1CC2(CCN(C[C@@H]3CC[C@@H](NS(=O)(=O)NCC(F)(F)F)CO3)CC2)C1 [Compound 157, {[(3R,6S)-6-{[2-(5-{2-[(3R,5R)-3,5-Dimethylmorpholine-4-carbonyl]-4-fluorophenoxy}pyrimidin-4-yl)-2,7-diazaspiro[3.5]nonan-7-yl]methyl}oxan-3-yl]sulfamoyl}(2,2,2-trifluoroethyl)amine]		< 1 nM
C[C@@H]1COC[C@@H](C)N1C(=O)c1cc(F)ccc1Oc1cncnc1N1CC2(CCN(C[C@@H]3CC[C@@H](NS(=O)(=O)NC4CC4)CO3)CC2)C1 [Compound 159, N-[(3R,6S)-6-{[2-(5-{2-[(3R,5R)-3,5-Dimethylmorpholine-4-carbonyl]-4-fluorophenoxy}pyrimidin-4-yl)-2,7-diazaspiro[3.5]nonan-7-yl]methyl}oxan-3-yl](cyclopropylamino)sulfonamide]		< 1 nM
C[C@@H]1COC[C@H](C)N1C(=O)c1cc(F)ccc1Oc1cncnc1N1CC2(CCN(C[C@@H]3CC[C@@H](NS(=O)(=O)N(C)C)CO3)CC2)C1 [Compound 160, {[(3R,6S)-6-{[2-(5-{2-[(3R,5S)-3,5-Dimethylmorpholine-4-carbonyl]-4-fluorophenoxy}pyrimidin-4-yl)-2,7-diazaspiro[3.5]nonan-7-yl]methyl}oxan-3-yl]sulfamoyl}dimethylamine]		< 1 nM
C[C@@H]1COC[C@H](C)N1C(=O)c1cc(F)ccc1Oc1cncnc1N1CC2(CCN(C[C@@H]3CC[C@@H](NS(=O)(=O)NCC(F)(F)F)CO3)CC2)C1 [Compound 162, {[(3R,6S)-6-{[2-(5-{2-[(3R,5S)-3,5-Dimethylmorpholine-4-carbonyl]-4-fluorophenoxy}pyrimidin-4-yl)-2,7-diazaspiro[3.5]nonan-7-yl]methyl}oxan-3-yl]sulfamoyl}(2,2,2-trifluoroethyl)amine]		< 1 nM
C[C@@H]1COC[C@H](C)N1C(=O)c1cc(F)ccc1Oc1cncnc1N1CC2(CCN(C[C@@H]3CC[C@@H](NS(=O)(=O)NC4CC4)CO3)CC2)C1 [Compound 163, N-[(3R,6S)-6-{[2-(5-{2-[(3R,5S)-3,5-Dimethylmorpholine-4-carbonyl]-4-fluorophenoxy}pyrimidin-4-yl)-2,7-diazaspiro[3.5]nonan-7-yl]methyl}oxan-3-yl](cyclopropylamino)sulfonamide]		< 1 nM
CC(C)N(C(=O)c1cc(F)ccc1Oc1cncnc1N1CC2(CCN(C[C@@H]3CC[C@@H](NS(C)(=O)=O)CO3)CC2)C1)[C@@H]1CCOC1 [Compound 166, 5-Fluoro-N-isopropyl-2-((4-(7-(((2S,5R)-5-(methylsulfonamido)tetrahydro-2H-pyran-2-yl)methyl)-2,7-diazaspiro[3.5]nonan-2-yl)pyrimidin-5-yl)oxy)-N-((R)-tetrahydrofuran-3-yl)benzamide]		< 1 nM

From patent US11919901B2 (Syndax Pharmaceuticals, Inc., priority 2021, dated 2024)
